Test results: ChEMBL document CHEMBL1201862, “PubChem BioAssay data set” (2004)
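Protocol summary: plate cells (96-well), add compound at 5 concentrations, incubate 48 h, interpolate endpoints linearly. GI50 is the concentration that inhibits growth by half.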 Active and inactive are the calls of the source. Rule as the data show it: active = GI50 up to about 1.1 µM and inactive = higher.

Experiments:
Assay in all cases: NCI anticancer screen, dose series, 48 h
HCC 2998 = test system: HCC 2998
IGROV-1 = test system: IGROV-1
HCT-15 = test system: HCT-15
OVCAR-3 = test system: OVCAR-3
LOX IMVI = test system: LOX IMVI
SW-620 = test system: SW-620
PC-3 = test system: PC-3
UO-31 = test system: UO-31
NCI-H23 = test system: NCI-H23
K562 = test system: K562
SK-MEL-28 = test system: SK-MEL-28
MCF7 = test system: MCF7
SK-OV-3 = test system: SK-OV-3
TK-10 = test system: TK-10
OVCAR-4 = test system: OVCAR-4
OVCAR-8 = test system: OVCAR-8
SF-539 = test system: SF-539
NCI-H460 = test system: NCI-H460
NCI-H522 = test system: NCI-H522
A498 = test system: A498

Row | Compound | GI50 (HCC 2998) | GI50 (IGROV-1) | GI50 (HCT-15) [µM] | GI50 (OVCAR-3) | GI50 (LOX IMVI) | GI50 (SW-620) | GI50 (PC-3) | GI50 (UO-31) | GI50 (NCI-H23) | GI50 (K562) | GI50 (SK-MEL-28) | GI50 (MCF7) | GI50 (SK-OV-3) | GI50 (TK-10) | GI50 (OVCAR-4) | GI50 (OVCAR-8) | GI50 (SF-539) | GI50 (NCI-H460) | GI50 (NCI-H522) | GI50 (A498)
1 | Fc1cccc(C2SCc3nc4cc5ccccc5cc4n32)c1 (stereo unspecified) | > 100 µM (inactive) | > 100 µM (inactive) | > 100 | > 100 µM (inactive) | > 100 µM (inactive) | > 100 µM (inactive) | > 100 µM (inactive) | > 100 µM (inactive) | > 100 µM (inactive) | > 100 µM (inactive) | > 100 µM (inactive) | > 100 µM (inactive) | > 100 µM (inactive) | > 100 µM (inactive) | 90.8 µM (inactive) | > 100 µM (inactive) | > 100 µM (inactive) | – | – | –
2 | C[Si](C)(C)/C=C/CN1C(=O)CCC1O (stereo unspecified) | > 100 µM (inactive) | > 100 µM (inactive) | > 100 | > 100 µM (inactive) | > 100 µM (inactive) | > 100 µM (inactive) | – | > 100 µM (inactive) | > 100 µM (inactive) | > 100 µM (inactive) | > 100 µM (inactive) | – | > 100 µM (inactive) | > 100 µM (inactive) | > 100 µM (inactive) | > 100 µM (inactive) | > 100 µM (inactive) | > 100 µM (inactive) | > 100 µM (inactive) | > 100 µM (inactive)
3 | CC1OC(n2ccc(=O)[nH]c2=O)C=C(OC(=O)c2ccccc2)C1=O (stereo unspecified) | – | > 100 µM (inactive) | > 100 | 26.9 µM (inactive) | 35.7 µM (inactive) | 64.6 µM (inactive) | – | 55.6 µM (inactive) | 36.6 µM (inactive) | > 100 µM (inactive) | 48.6 µM (inactive) | – | > 100 µM (inactive) | 49 µM (inactive) | 18.9 µM (inactive) | 45 µM (inactive) | > 100 µM (inactive) | 48.6 µM (inactive) | – | –
4 | O=C(c1ccccc1)N1C(=S)N(c2ccc([N+](=O)[O-])cc2)C(=N/c2ccccc2)/C1=N\c1ccccc1 | > 100 µM (inactive) | > 100 µM (inactive) | 65.2 | > 100 µM (inactive) | – | > 100 µM (inactive) | 40.6 µM (inactive) | > 100 µM (inactive) | > 100 µM (inactive) | 30.1 µM (inactive) | > 100 µM (inactive) | > 100 µM (inactive) | > 100 µM (inactive) | > 100 µM (inactive) | – | 65.5 µM (inactive) | > 100 µM (inactive) | 72.1 µM (inactive) | 9.06 µM (inactive) | –
5 | Nc1ccc2nc(Nc3ccc(Cl)c(Cl)c3)cnc2c1 | 16.1 µM (inactive) | – | 16.6 | 16.9 µM (inactive) | 14.7 µM (inactive) | 17.9 µM (inactive) | – | 11.9 µM (inactive) | 22.4 µM (inactive) | 19 µM (inactive) | 17.6 µM (inactive) | – | – | 19.2 µM (inactive) | 17 µM (inactive) | 26.2 µM (inactive) | 29.5 µM (inactive) | 17.6 µM (inactive) | 6.37 µM (inactive) | –
6 | FC(F)(F)c1cccc2ns[s+]c12 | > 100 µM (inactive) | > 100 µM (inactive) | – | > 100 µM (inactive) | > 100 µM (inactive) | > 100 µM (inactive) | – | > 100 µM (inactive) | > 100 µM (inactive) | > 100 µM (inactive) | > 100 µM (inactive) | – | > 100 µM (inactive) | > 100 µM (inactive) | > 100 µM (inactive) | > 100 µM (inactive) | > 100 µM (inactive) | > 100 µM (inactive) | > 100 µM (inactive) | > 100 µM (inactive)
7 | C=CCNC(=S)OCCCCCCCCCC | 17.7 µM (inactive) | 20 µM (inactive) | 15.8 | – | 13.6 µM (inactive) | 18.7 µM (inactive) | – | 12.3 µM (inactive) | 19.8 µM (inactive) | 13.8 µM (inactive) | 23.6 µM (inactive) | – | 24.3 µM (inactive) | 11.7 µM (inactive) | 16.5 µM (inactive) | 17.1 µM (inactive) | 19 µM (inactive) | 17.6 µM (inactive) | – | 18.5 µM (inactive)
8 | CC(=O)OCC1OC(N=[N+]=[N-])C(OC(C)=O)C(OC(C)=O)C1OC1OC(COC(C)=O)C(OC(C)=O)C(OC(C)=O)C1OC(C)=O (stereo unspecified) | > 100 µM (inactive) | > 100 µM (inactive) | > 100 | > 100 µM (inactive) | > 100 µM (inactive) | > 100 µM (inactive) | – | > 100 µM (inactive) | > 100 µM (inactive) | > 100 µM (inactive) | > 100 µM (inactive) | – | > 100 µM (inactive) | 81.5 µM (inactive) | > 100 µM (inactive) | > 100 µM (inactive) | 58.6 µM (inactive) | > 100 µM (inactive) | > 100 µM (inactive) | > 100 µM (inactive)
9 | CCOC(=O)c1c(-c2ccc(OC)c(O)c2)c(C#N)c(=S)n(C2OC(CO)C(O)C(O)C2O)c1-c1ccccc1 (stereo unspecified) | > 100 µM (inactive) | > 100 µM (inactive) | > 100 | – | > 100 µM (inactive) | > 100 µM (inactive) | > 100 µM (inactive) | > 100 µM (inactive) | > 100 µM (inactive) | > 100 µM (inactive) | > 100 µM (inactive) | – | – | – | > 100 µM (inactive) | – | – | > 100 µM (inactive) | – | > 100 µM (inactive)
